The supplement of paper PMC13207355
Counter-ions that a name gives are not always drawn.

Experiments:
Settings in all cases: exposure time: 72 h
E57 [1] = patient-derived glioblastoma stem cells of mesenchymal subtype; assay: surviving fraction (nuclei count normalised to DMSO); higher = more cells surviving (less toxic)
E31 [2] = patient-derived glioblastoma stem cells of proneural subtype; assay: as above
E21 [3] = patient-derived glioblastoma stem cells of mesenchymal subtype; assay: as above
FT3469 [4] = normal neural stem cell line; assay: as above
E34 [5] = patient-derived glioblastoma stem cells of proneural subtype; assay: as above
E28 [6] = patient-derived glioblastoma stem cells of classical subtype; assay: as above
E13 [7] = patient-derived glioblastoma stem cells of classical subtype; assay: as above
E57 [8] = assay: phenotypic distance (Euclidean, principal components) from DMSO controls (arbitrary units); higher = stronger morphological change
E31 [9] = assay: as above
E21 [10] = assay: as above
FT3469 [11] = assay: as above
E34 [12] = assay: as above
E28 [13] = assay: as above
E13 [14] = assay: as above
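For phenotypic distance (Euclidean, principal components) from DMSO controls in this document: cell Painting imaging in 384-well plates, CellProfiler features reduced to at least 20 principal components, Euclidean distance versus same-plate DMSO vehicle wells (0.1% v/v), median over six images per well.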
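For surviving fraction (nuclei count normalised to DMSO) in this document: nuclei counted by high-content imaging of Hoechst-stained cells in laminin-coated 384-well plates, relative to 0.1% DMSO vehicle wells, with staurosporine as cell-death control.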

N=C(N)NCc1cccc(I)c1 [Iobenguane sulfate]
Settings | phenotypic distance | surviving fraction
E13 [7], 4.1 nM | – | 0.873
E13 [7], 12.3 nM | – | 0.869
E13 [7], 37 nM | – | 0.916
E13 [7], 111.1 nM | – | 0.908
E13 [7], 333.3 nM | – | 0.989
E13 [7], 1000 nM | – | 0.922
E13 [7], 3000 nM | – | 1.08
E13 [14], 4.1 nM | 0.573 | –
E13 [14], 12.3 nM | 0.965 | –
E13 [14], 37 nM | 0.696 | –
E13 [14], 111.1 nM | 0.835 | –
E13 [14], 333.3 nM | 0.643 | –
E13 [14], 1000 nM | 0.541 | –
E13 [14], 3000 nM | 0.796 | –
E21 [3], 4.1 nM | – | 0.982
E21 [3], 12.3 nM | – | 0.855
E21 [3], 37 nM | – | 0.854
E21 [3], 111.1 nM | – | 0.921
E21 [3], 333.3 nM | – | 0.972
E21 [3], 1000 nM | – | 1.05
E21 [3], 3000 nM | – | 0.879
E21 [10], 4.1 nM | 0.441 | –
E21 [10], 12.3 nM | 0.695 | –
E21 [10], 37 nM | 1.24 | –
E21 [10], 111.1 nM | 0.881 | –
E21 [10], 333.3 nM | 0.867 | –
E21 [10], 1000 nM | 0.81 | –
E21 [10], 3000 nM | 0.765 | –
E28 [6], 4.1 nM | – | 0.875
E28 [6], 12.3 nM | – | 1.03
E28 [6], 37 nM | – | 0.94
E28 [6], 111.1 nM | – | 1.05
E28 [6], 333.3 nM | – | 1.04
E28 [6], 1000 nM | – | 1.05
E28 [6], 3000 nM | – | 0.936
E28 [13], 4.1 nM | 0.591 | –
E28 [13], 12.3 nM | 0.866 | –
E28 [13], 37 nM | 0.64 | –
E28 [13], 111.1 nM | 0.721 | –
E28 [13], 333.3 nM | 0.496 | –
E28 [13], 1000 nM | 0.786 | –
E28 [13], 3000 nM | 0.814 | –
E31 [2], 4.1 nM | – | 0.961
E31 [2], 12.3 nM | – | 0.997
E31 [2], 37 nM | – | 0.864
E31 [2], 111.1 nM | – | 1.15
E31 [2], 333.3 nM | – | 1.07
E31 [2], 1000 nM | – | 1.13
E31 [2], 3000 nM | – | 0.964
E31 [9], 4.1 nM | 0.547 | –
E31 [9], 12.3 nM | 0.684 | –
E31 [9], 37 nM | 0.567 | –
E31 [9], 111.1 nM | 0.714 | –
E31 [9], 333.3 nM | 0.802 | –
E31 [9], 1000 nM | 0.469 | –
E31 [9], 3000 nM | 0.734 | –
E34 [5], 4.1 nM | – | 0.935
E34 [5], 12.3 nM | – | 1.1
E34 [5], 37 nM | – | 1.02
E34 [5], 111.1 nM | – | 0.975
E34 [5], 333.3 nM | – | 1.08
E34 [5], 1000 nM | – | 1.1
E34 [5], 3000 nM | – | 1.25
E34 [12], 4.1 nM | 0.386 | –
E34 [12], 12.3 nM | 0.879 | –
E34 [12], 37 nM | 0.823 | –
E34 [12], 111.1 nM | 0.771 | –
E34 [12], 333.3 nM | 1.44 | –
E34 [12], 1000 nM | 0.934 | –
E34 [12], 3000 nM | 0.966 | –
E57 [1], 4.1 nM | – | 1.03
E57 [1], 12.3 nM | – | 0.978
E57 [1], 37 nM | – | 0.973
E57 [1], 111.1 nM | – | 1.03
E57 [1], 333.3 nM | – | 0.992
E57 [1], 1000 nM | – | 1.01
E57 [1], 3000 nM | – | 1.04
E57 [8], 4.1 nM | 0.755 | –
E57 [8], 12.3 nM | 0.843 | –
E57 [8], 37 nM | 0.712 | –
E57 [8], 111.1 nM | 0.905 | –
E57 [8], 333.3 nM | 0.728 | –
E57 [8], 1000 nM | 0.452 | –
E57 [8], 3000 nM | 0.547 | –
FT3469 [4], 4.1 nM | – | 1.08
FT3469 [4], 12.3 nM | – | 1.12
FT3469 [4], 37 nM | – | 0.963
FT3469 [4], 111.1 nM | – | 1.09
FT3469 [4], 333.3 nM | – | 1.1
FT3469 [4], 1000 nM | – | 0.904
FT3469 [4], 3000 nM | – | 1.14
FT3469 [11], 4.1 nM | 0.354 | –
FT3469 [11], 12.3 nM | 3.38 | –
FT3469 [11], 37 nM | 0.885 | –
FT3469 [11], 111.1 nM | 1.06 | –
FT3469 [11], 333.3 nM | 1.08 | –
FT3469 [11], 1000 nM | 0.871 | –
FT3469 [11], 3000 nM | 0.634 | –
